Assays:
[1] = metabolite of sulofenur; cited from earlier work
[2] = metabolite of sulofenur; cited from earlier work; remark: listed apart in the source
[3] = system: 6C3HED lymphosarcoma (Gardner lymphosarcoma, GLS); experiment: Percent inhibition of tumor growth in C3H mice bearing 6C3HED lymphosarcoma (Gardner lymphosarcoma, GLS), oral; format: in vivo; settings: oral gavage, daily for 8 days
Description: (§1) The compounds were tested in C3H mice bearing a 6C3HED lymphosarcoma, also known as the Gardner lymphosarcoma (GLS). The 6C3HED lymphosarcoma was obtained from the Division of Cancer Treatment, National Cancer Institute, Tumor Bank, maintained at E. G. and G. Mason Research (Worcester, Mass.). First passage tumor was stored in liquid nitrogen using standard techniques. The transplanted tumor was reestablished from the Tumor Bank every six months or as needed. The tumor was maintained by serial passage twice weekly in C3H mice.
In the procedures utilized here, the tumor was removed from passage animals and minced into 1- to 3-mm cubic fragments using sterile techniques. Tumor pieces were checked for sterility using both Antibiotic Medium 1 and Brain Heart Infusion (Difco, Detroit, Mich.). Recipient mice were shaved and the tumor pieces were implanted subcutaneously in an axillary site by trochar.
(§2) Drug therapy on the appropriate schedule was initiated on the day after tumor implantation. The compound being tested was mixed with 2.5% Emulphor EL620 from GAF Corporation (1:40 dilution in 0.9% saline). The total dosage volume for each administration was 2.5 mL. All animals were weighed at the beginning and end of administration of the subject compounds. Food and water were provided ad libitum.
(§3) Each control group and each dosage level of the treated groups consisted of 10 mice selected at random from the pool of implanted animals. The compounds were administered orally by gavage with the use of an 18-gauge needle. Compounds were dosed daily for 8 days.
The tumor was measured the day after treatment ended with two dimensional measurements (width and length) of the tumor taken using Vernier calipers. Tumor weights were calculated from these measurements using the following formula:
Tumor weight (mg)=[tumor length (mm)×[tumor width (mm)]^2 ].div.2
At least one control group of an equal number of mice was treated with the same volume of 2.5% Emulphor only. The percent inhibition is determined by subtracting the ratio of the mean tumor size of the test group relative to the control group from one and multiplying the result by 100.
(§4) The results of several experiments in mice bearing a 6C3HED lymphosarcoma when the instant compounds were administered orally are provided in Table I. In the Table, column 1 gives the dose level of the compound mixture of Example 1, column 2 provides the percent inhibition of tumor growth, and column 3 gives the number of mice which died relative to the total number of animals in the group.

[4] = system: C3H mice bearing a 6C3HED lymphosarcoma; experiment: Toxicity (mice which died relative to total number in group) in C3H mice bearing 6C3HED lymphosarcoma; format: in vivo; settings: oral gavage, daily for 8 days
Description: as §1, §2, §3, §4

[5] = all species (mice, rats, dogs, monkeys); cited from earlier work
[6] = phase I clinical studies; cited from earlier work

Molecule: O=C(Nc1ccc(Cl)cc1)NS(=O)(=O)c1ccc2c(c1)CCC2O (stereo not shown) [N-(1-hydroxyindan-5-sulfonyl)-N'-(4-chlorophenyl)urea]
- retention in humans compared with other species tested [1]: retained longer in humans than in the other species tested
- contribution of metabolite to adverse effects [2]: contribute to the adverse effects
- therapeutic activity of metabolite [2]: therapeutically inactive

Molecule: O=C(Nc1ccc(Cl)cc1)NS(=O)(=O)c1ccc2c(c1)CCC2=O [N-(1-ketoindan-5-sulfonyl)-N'-(4-chlorophenyl)urea]
- retention in humans compared with other species tested [1]: retained longer in humans than in the other species tested
- contribution of metabolite to adverse effects [2]: contribute to the adverse effects
- therapeutic activity of metabolite [2]: therapeutically inactive

Molecule: N-[[(4-chlorophenyl)amino]carbonyl]-indene-5-sulfonamide (A) and N-[[(4-chlorophenyl)amino]carbonyl]-indene-6-sulfonamide (B) [Example 1]
- Percent Inhibition (of tumor growth) ([3]; dosage 25.0 (unit not given)): 16%
- Percent Inhibition (of tumor growth) ([3]; dosage 50.0 (unit not given)): 36%
- Percent Inhibition (of tumor growth) ([3]; dosage 100.0 (unit not given)): 77%
- Percent Inhibition (of tumor growth) ([3]; dosage 150.0 (unit not given)): 100%
- Percent Inhibition (of tumor growth) ([3]; dosage 300.0 (unit not given)): 100%
- Toxic/Total (mice which died relative to total number of animals in the group) ([4]; dosage 25.0 (unit not given)): 0/10
- Toxic/Total (mice which died relative to total number of animals in the group) ([4]; dosage 50.0 (unit not given)): 0/10
- Toxic/Total (mice which died relative to total number of animals in the group) ([4]; dosage 100.0 (unit not given)): 0/10
- Toxic/Total (mice which died relative to total number of animals in the group) ([4]; dosage 150.0 (unit not given)): 0/10
- Toxic/Total (mice which died relative to total number of animals in the group) ([4]; dosage 300.0 (unit not given)): 0/10

Molecule: O=C(Nc1ccc(Cl)cc1)NS(=O)(=O)c1ccc2c(c1)CCC2 [sulofenur, N-(indan-5-sulfonyl)-N'-(4-chlorophenyl)urea]
- adsorption [5]: good adsorption
- metabolism (extent) [5]: extensive metabolism
- major metabolites in patients [6]: 1-hydroxy- and 1-ketoindansulfonylureas

— patent publication US5262440A, “Antitumor compositions and methods of treatment” (Eli Lilly and Company, priority 1991, dated 1993)
